The values that follow come from US11248016B2, “Glycolipids and pharmaceutical compositions thereof for use in therapy” (THE UNIVERSITY OF NOTTINGHAM, priority 2014, dated 2022).

For assay [1], the system named is amyloid precursor protein APP 5′UTR luciferase reporter. Put plainly: 5′UTR firefly luciferase reporter assay, APP. The assay is classed as cell-based, human. The method, then:
SH-SY5Y cells were simultaneously co-transfected with APP-5′UTR firefly luciferase construct and a Renilla control vector. Luciferase levels were assayed using a Glomax Luminometer and Stop-n-Glo luciferase reagents (standard procedure throughout). The data presented represents 8 biological repetitions and use as the active a semi refined compound of Formula II. Levels of compound were estimated based on amounts of purified compound obtained from fresh tomato tissue.
The 5′UTRs of genes which negatively associate with the progression of Alzheimer's disease—amyloid precursor protein (APP) and beta secretases (BACE) are all inhibited by treatment with a compound of Formula II, whereas the equivalent reporter levels of housekeeping genes actin and thioredoxin (TXN) are not inhibited. […] Neuroblastoma cells were transfected 24 hours prior to treatment with a compound of Formula II. After treatment, cells were prepared as described in the materials and methods. Each experiment represents between 6 and 8 biological repetitions. […]
(§1) Cells were transfected using FuGene 6 (Roche) following the manufacturer's instructions. The activities of firefly and renilla luciferase in lysates prepared from transfected cells were measured using a commercially available Luciferase reporter assay system (Promega) and light emission was measured over a 10 sec interval using a TECAN luminometer. […]
On the technique in general: Reporter assays use an easily measured gene product as a stand-in for the process of interest.

The test system of assay [2] is breast cancer cells MDA-MB-231. As to the kind of experiment: Cell proliferation, MDA-MB-231. In kind it is cell-based. The conditions noted are these: 96 hours, Formula II only. As to the method:
Growth of MDA-MB-231 cell lines were slowed by the treatment with a compound of Formula II. Experiment represents 6 biological repetitions, Error=S.E.M.
(§2) Prior to treatment cells were cultured to an appropriate confluency in 96 well tissue culture plates (Fisher). Cells remained either supplemented with fresh media or treated with fresh media containing active or an equivalent volume of DMSO (vehicle control). Where used, Cisplatin™ was diluted to a stock concentration in Dimethylformamide (DMF), then handled as per the manufacturer's instructions. To determine relative cell viability, reagents WST-1 (Roche) or MTT (Sigma) were used as per the manufacturer's instructions and absorbance at 450 nm measured using a Victor plate reader (Perkin Elmer).

In assay [3] the test system is beta secretases (BACE) 5′UTR. As to the kind of experiment: 5′UTR firefly luciferase reporter assay, BACE. The assay is classed as cell-based, human. The conditions noted are these: Neuroblastoma cells; FIG. 3d. As to the method:
(§3) The 5′UTRs of genes which negatively associate with the progression of Alzheimer's disease—amyloid precursor protein (APP) and beta secretases (BACE) are all inhibited by treatment with a compound of Formula II, whereas the equivalent reporter levels of housekeeping genes actin and thioredoxin (TXN) are not inhibited. […] Neuroblastoma cells were transfected 24 hours prior to treatment with a compound of Formula II. After treatment, cells were prepared as described in the materials and methods. Each experiment represents between 6 and 8 biological repetitions.
(§4) Experiments conducted using Firefly luciferase reporter plasmids containing the 5′ untranslated regions (UTRs) of the genes amyloid precursor protein (APP), thioredoxin (TXN) were conducted with reagents and materials described by Bottley et al, 2010. Experiments conducted using Firefly luciferase reporter plasmids containing the 5′ UTRs of the genes EGFR, BACE1 and Actin were conducted with reagents and materials described by Webb, 2012 (http://etheses.nottingham.ac.uk/2724/). […]
as §1

In assay [4] the test system is Cap-dependent (eIF4A dependant) translation. As to the kind of experiment: CrPV assay, cap-dependent translation (firefly luciferase). In kind it is cell-based. The conditions noted are these: 20 μM, 3 hours treatment, FIG. 12. An excerpt:
FIG. 12—CrPV assay—Natural molecule targets eIF4A.
By using a well characterised luciferase based reporter assay it was further determined that this class of molecule functions as a protein synthesis inhibitor via targeting the helicase eIF4A.

Assay [5] relates to SKOV3 ovarian cancer cells. As to the kind of experiment: Cell proliferation, SKOV3. The assay is classed as cell-based. The conditions noted are these: 96 hours. The method, then:
Growth of SKOV3 cell lines were slowed by the treatment with a compound of Formula II at higher doses. Experiment represents 6 biological repetitions, Error=S.E.M.
Cisplatin™ resistant SKOV-3 ovarian cancer cells were sensitised to treatment with a compound of Formula II in combination with 2.5 μM Cisplatin™ (p=0.003) (right hand bar in the figure), no effect is observed from treatment with equivalent levels of a compound of Formula II alone (left hand bar in the figure) or Cisplatin™ alone.
as §2

Assay [6] has as its system Neuroblastoma cells (SH-SY5Y). Put plainly: Polysome profiling (sucrose density). The assay is classed as cell-based, human. As to the method:
Established techniques such as polysome profiling were used to show a reduction in the number of polyribosomes in neuroblastoma cells after treatment with a compound of Formula II. Polysome peaks from left to right show increasing number of ribosomes associated with mRNA. This peaks at 3 ribosomes after treatment with a compound of Formula II showing rapid and reproducible perturbation of translation. Cells were treated for 20 minutes with a compound of Formula II then harvested and prepared as described in materials and methods. The supernatants were loaded onto 10-50% sucrose gradients and spun for 2 hrs at 38,000 RPM. Gradients were visualised using a UV detector.
The number of ribosomes is indicative of the translation of an mRNA and synthesis of the protein encoded by the mRNA, and treatment with the compound of Formula II decreases the number of ribosomes per message thereby reducing global protein synthesis.
Polysome profiles were obtained using sucrose density centrifugation. Briefly one 15 cm plate of cultured Neuroblastoma cells (SH-SY5Y) were grown per treatment to a confluency of 70%. Cells were then treated with either active or equivalent DMSO vehicle control for 20 min. […] Gradients were fractionated and polysome profiles determined through a continuous monitoring at absorbance 260 nm (described previously Johannes et al. 1999).

Assay [7] has as its system epidermal growth factor receptor (EGFR) 5′UTR. As to the kind of experiment: 5′UTR firefly luciferase reporter assay, EGFR. The assay is classed as cell-based, human. The conditions noted are these: Neuroblastoma cells; FIG. 3d. The method, then:
as §3
After treatment with the compound of Formula II the levels of translation of a reporter construct containing the 5′UTR of amyloid precursor protein, which is processed into toxic amyloid the major constituent of amyloid plaques in Alzheimer's disease, is inhibited relative to equivalent control treatments. […]
as §1

Another assay deals with actin 5′UTR. As to the kind of experiment: 5′UTR firefly luciferase reporter assay, actin. The assay is classed as cell-based, human. The conditions noted are these: Neuroblastoma cells; FIG. 3d. The method, then: as §3, §4, §1

“Also recorded” adds a separate entry of the source.

`CC/C=C\C/C=C\C/C=C\CCCCCCCC(=O)OC[C@H](COC1OC(CO)C(O)C(O)C1O)OC(=O)CCCCCCC/C=C\C/C=C\C/C=C\CC` (stereo partly drawn) [Formula II, 1,2-dioctadecatienyl-3-O-β-D-galactosyl-sn-glycerol]: the “firefly luciferase reporter activity, APP 5′UTR” value in assay [1] (Neuroblastoma cells transfected 24 hours prior, FIG. 3d) is listed as “inhibited”. The “APP 5′UTR luciferase reporter relative to Renilla luciferase reporter” value in assay [1] (SH-SY5Y cells, semi refined compound, FIG. 3a) is listed as “selective inhibition”. The “growth of MDA-MB-231 cells” value in assay [2] was “slowed”. The “firefly luciferase reporter activity, BACE 5′UTR” value in assay [3] is “inhibited”. Also, the figures for the “cap dependant translation (firefly luciferase signal)” value in assay [4] and in assay [4] (listed as Synthetic version of the natural molecule) were “selectively reduces the translation of the firefly luciferase gene” and “inhibited”, respectively. In assay [5] (Formula II only, at higher doses), the “growth of SKOV3 cells” value is reported as “slowed”. Moreover, the “effect on SKOV-3 cells, compound alone” value in assay [5] (equivalent levels of Formula II alone, FIG. 4f) was “no effect”. For the same compound, the “sensitisation of SKOV-3 cells to Cisplatin” value in assay [5] (in combination with 2.5 μM Cisplatin (p=0.003)) is on record as “sensitised”. For the same compound, the “polysome peak, number of ribosomes associated with mRNA” value in assay [6] (after treatment, 20 minutes) is 3 ribosomes. Also, the amount of polyribosomes result in assay [6] (cells treated for 20 minutes, 10-50% sucrose gradients) is on record as “reduction in the amount of polyribosomes”. Moreover, the “firefly luciferase reporter activity, EGFR 5′UTR” value in assay [7] is given as “selectively inhibited; also recorded: significant inhibition (p=0.005)”. Moreover, the “firefly luciferase reporter levels, actin 5′UTR” value in the assay on actin 5′UTR is listed as “not inhibited”.
